Measurements from the NIST ThermoML archive (doi:10.1016/j.jct.2012.01.013).

Experiment: xn = mol fraction of the nth substance listed
Conditions: 101 kPa, Liquid; for viscosity: Falling or rolling sphere viscometry; for mass density: Vibrating tube method

CC(=O)[O-].Cn1cc[nH+]c1 [1-methylimidazolium acetate] + O
Conditions | mass density, 293.15 K [kg/m3] | mass density, 298.15 K [kg/m3] | mass density, 303.15 K [kg/m3] | mass density, 308.15 K [kg/m3] | mass density, 313.15 K [kg/m3] | viscosity, 293.15 K [mPa·s] | viscosity, 298.15 K [mPa·s] | viscosity, 303.15 K [mPa·s] | viscosity, 308.15 K [mPa·s] | viscosity, 313.15 K [mPa·s]
x1 = 0.0496 | 1050.26 | 1047.88 | 1045.35 | 1042.68 | 1039.87 | 2.361 | 2.05 | 1.797 | 1.59 | 1.419
x1 = 0.0999 | 1080.12 | 1076.77 | 1073.32 | 1069.76 | 1066.09 | 4.352 | 3.682 | 3.154 | 2.73 | 2.363
x1 = 0.2007 | 1099.43 | 1095.11 | 1090.72 | 1086.27 | 1081.75 | 8.567 | 7.087 | 5.755 | 4.731 | 4.082
x1 = 0.2985 | 1099.75 | 1095.2 | 1090.61 | 1085.97 | 1081.29 | 11.17 | 9.095 | 7.498 | 6.239 | 5.265
x1 = 0.3986 | 1096.26 | 1091.68 | 1087.07 | 1082.42 | 1077.74 | 11.62 | 9.434 | 7.776 | 6.521 | 5.535
x1 = 0.496 | 1092.17 | 1087.6 | 1083 | 1078.38 | 1073.73 | 11.27 | 9.212 | 7.655 | 6.419 | 5.459
x1 = 0.6467 | 1087.46 | 1082.93 | 1078.39 | 1073.83 | 1069.26 | 10.44 | 8.538 | 7.137 | 6.085 | 5.234
x1 = 0.7954 | 1083.49 | 1079.01 | 1074.5 | 1069.99 | 1065.48 | 9.391 | 7.858 | 6.641 | 5.663 | 4.895
x1 = 0.8987 | 1081.48 | 1077.03 | 1072.55 | 1068.08 | 1063.6 | 8.655 | 7.299 | 6.193 | 5.304 | 4.584

CC(=O)[O-].Cn1cc[nH+]c1 [1-methylimidazolium acetate] + CCO
Conditions | mass density, 293.15 K [kg/m3] | mass density, 298.15 K [kg/m3] | mass density, 303.15 K [kg/m3] | mass density, 308.15 K [kg/m3] | mass density, 313.15 K [kg/m3] | viscosity, 293.15 K [mPa·s] | viscosity, 298.15 K [mPa·s] | viscosity, 303.15 K [mPa·s] | viscosity, 308.15 K [mPa·s] | viscosity, 313.15 K [mPa·s]
x1 = 0.0495 | 823.45 | 819.02 | 814.55 | 810.04 | 805.49 | 1.366 | 1.236 | 1.123 | 1.024 | 0.938
x1 = 0.0964 | 851.37 | 846.85 | 842.29 | 837.69 | 833.06 | 1.578 | 1.421 | 1.268 | 1.153 | 1.052
x1 = 0.2004 | 902.14 | 897.55 | 892.91 | 888.25 | 883.55 | 1.995 | 1.789 | 1.612 | 1.458 | 1.325
x1 = 0.2986 | 940.21 | 935.59 | 930.94 | 926.27 | 921.57 | 2.485 | 2.212 | 1.981 | 1.784 | 1.614
x1 = 0.401 | 972.28 | 967.67 | 963.03 | 958.37 | 953.69 | 3.048 | 2.695 | 2.399 | 2.148 | 1.935
x1 = 0.4973 | 997.47 | 992.88 | 988.27 | 983.64 | 978.99 | 3.642 | 3.199 | 2.833 | 2.524 | 2.264
x1 = 0.6499 | 1029.38 | 1024.83 | 1020.26 | 1015.69 | 1011.1 | 4.686 | 4.061 | 3.576 | 3.146 | 2.798
x1 = 0.8003 | 1053.98 | 1049.49 | 1044.97 | 1040.45 | 1035.92 | 5.85 | 5.024 | 4.363 | 3.826 | 3.384
x1 = 0.8941 | 1066.93 | 1062.47 | 1057.99 | 1053.51 | 1049.01 | 6.855 | 5.847 | 5.04 | 4.357 | 3.829
